{"source": "patent US12083089B2", "about": "“Compositions and methods for stimulating ventilatory and/or respiratory drive” (CASE WESTERN RESERVE UNIVERSITY, priority 2015, dated 2024)", "key": {"adult male rats [1]": {"system": "adult male rats", "experiment": "Hargreaves Hind-paw Latency Test, morphine 1 mg/kg", "format": "in vivo, rat", "conditions": "given alone, morphine sulfate 1 mg/kg IV"}, "freely moving rats [2]": {"system": "freely moving rats", "experiment": "Hot-plate (hind-paw withdrawal) latency (HPL), Hargreaves's test, morphine 10 mg/kg", "format": "in vivo, rat", "conditions": "morphine 10 mg/kg IV in vehicle-treated rats"}, "rats": {"system": "rats", "experiment": "Sedation observation in morphine-treated rats", "conditions": "morphine 10 mg/kg IV plus vehicle"}, "freely moving rats [3]": {"system": "freely moving rats", "experiment": "Arterial blood-gas chemistry and A-a gradient in morphine-treated rats", "format": "in vivo, rat", "conditions": "freely moving rats, morphine 10 mg/kg IV, then drug 500 μmol/kg IV 15 min later"}, "adult male rats [4]": {"system": "adult male rats", "experiment": "Von Frey Test, morphine 1 mg/kg", "format": "in vivo, rat", "conditions": "given alone, morphine 1 mg/kg IV"}}, "data": [{"smiles": "CN1CC[C@]23c4c5ccc(O)c4O[C@H]2[C@@H](O)C=C[C@H]3[C@H]1C5", "note": "[Morphine, morphine]", "values": [{"measurement": "Hargreaves hind-paw withdrawal latency", "setting": "adult male rats [1]; D-cystine diME 500 μmol/kg IV, FIG. 26 study", "result": "16.3 ± 1.8", "unit": "s"}, {"measurement": "Hargreaves hind-paw withdrawal latency", "setting": "adult male rats [1]; L-cystine diME 500 μmol/kg IV, FIG. 24 study", "result": "19.5 ± 0.4", "unit": "s"}, {"measurement": "duration of the increase in HPL", "setting": "freely moving rats [2]", "result": "at least 4 h"}, {"measurement": "time for which full mobility was not evident", "setting": "rats", "result": "at least 2 h"}, {"measurement": "changes in ABG chemistry (pH, pCO2, pO2 and sO2)", "setting": "freely moving rats [3]; FIG. 18", "result": "substantial falls in pH, pO2 and sO2 accompanied by substantial increases in pCO2"}, {"measurement": "changes in A-a gradient", "setting": "freely moving rats [3]; FIG. 19", "result": "substantial and equivalent increases"}, {"measurement": "force needed to initiate hind-paw withdrawal (Von Frey)", "setting": "adult male rats [4]; D-cystine diME 500 μmol/kg IV, FIG. 27 study", "result": "177±8", "unit": "grams"}, {"measurement": "force needed to initiate hind-paw withdrawal (Von Frey)", "setting": "adult male rats [4]; L-cystine diME 500 μmol/kg IV, FIG. 25 study", "result": "88.3 ± 7.0", "unit": "g"}]}]}
